The source of these data is a melting point compilation (Tetko et al.; mined from patent text by program, amines drawn as free bases though some values may be those of a salt).

The melting point is the temperature, or range, at which the solid turns liquid.

Molecules are shown by their SMILES.

On to `COC(=O)c1sccc1Nc1ccc(Cl)cc1[N+](=O)[O-]`, for which the melting point lay in the range of 207 to 208 °C.

`O=C(O)CC(=O)Nc1ccc(Br)cc1C(=O)O` displayed a melting point of 203 to 206 °C.

In turn, `CCSNc1c(C#N)cnn1-c1c(Cl)cc(C(F)(F)F)cc1Cl` gave a melting point of 157 to 158 °C.

For `CCCC1=C(C(=O)OCC)C(c2cccc([N+](=O)[O-])c2)C(C(=O)OCC)=C(C)N1COCC` (centres undefined), the melting point was determined as 97 °C.

Turning to `COC(=O)Cc1ccsc1-c1ccccc1`, the melting point lay within 29 to 31 °C.

On to `COc1ccc(C(=O)N[C@@H](CNC(=O)c2ccc(C)cc2)c2ccccc2)cc1`, for which the melting point is 230 to 238 °C.

Compound `N#Cc1nn(-c2c(Cl)cc(C(F)(F)F)cc2Cl)c(N)c1-c1ccccc1C(F)(F)F` returned a melting point of 161 °C.

Compound `O=C(O)c1cn(C2CC2)c2cc(N3CCNC(c4ccco4)C3)c(F)cc2c1=O` (centres undefined) came in with a melting point of 176 °C.

The compound `CCCCCCCCCCCCCCCCC(O)CNCCO` (centres undefined) yielded a melting point of 84.5 to 86 °C.

Take `O=C(O)c1ccccc1C(=O)c1ccc(O)cc1`: the melting point was in the range of 124 to 128 °C.

In turn, `OC1(CCc2ccccc2)CCOCC1` registered a melting point of 74 to 75 °C.

Regarding `CCCCN(Cc1ccccc1)C(=O)Nc1cccc(Cl)c1O`, the melting point was 59 to 62 °C.

For `CC(=O)c1ccc(Oc2ccc(Cl)cc2)cc1`, the melting point lay in the range of 66 to 68 °C.

The compound `CC(=O)OC1C(Oc2cc(C)cc(O)c2C(=O)CCc2ccc3occc3c2)OC(CO)C(O)C1OC(C)=O` (centres undefined) yielded a melting point of 151 to 153 °C.

As for `Cc1ccc(-c2cn(C)c(-c3ccc(C)s3)n2)s1`, the melting point fell in the range of 138 to 140 °C.

`N#CCCNC(=O)c1cccc(-c2cccc3c2CN(Cc2cccc(C(F)(F)F)c2)CC3)c1`: the melting point fell in the range of 114 to 117 °C.

Consider `CC(C)(C)[Si](C)(C)Oc1ccc(NC(=O)CCl)cc1`, for which the melting point was 107 to 108 °C.

Turning to `OCCc1ccc(Cl)cc1CO`, the melting point was 75 to 76 °C.

Consider `CC1(C)CC(=O)CC(=O)C1c1ccccc1` (centres undefined), for which the melting point lay in the range of 133 to 135 °C.

With `N#Cc1c(N)[nH]c(Br)c1C#N`, the melting point is greater than 210 °C.

The compound `COC[C@H]1CN(c2ccc(OCCC3(C(F)(F)F)OCCO3)cc2)C(=O)O1` had a melting point of 112 °C.

`O=C(c1ccccc1)c1cc(O)ccc1O` registered a melting point of 160 to 162 °C.

With `CCCCCCCCC#CCC#CCC#CCCCC(=O)Nc1ccc(O)cc1`, the melting point was determined as 121 °C.

For `O=C(c1ccc(Cc2ccc(F)cc2)o1)c1occ(Br)c(=O)c1O`, the melting point is 191 to 192 °C.

In turn, `COCCOC(=O)Cc1cccc(Nc2nccc(-c3sc(N)nc3C)n2)c1` came in with a melting point of 182 to 184 °C.

The compound `C#Cc1cc(CC)c(-c2c(O)c(C)nn(C)c2=O)c(CC)c1` showed a melting point of 216 to 217 °C.

Compound `Cc1nc(N(C)c2ccc(Cl)cc2)sc1-c1ccnc(Nc2ccc(N3CCOCC3)cc2)n1` came in with a melting point of 245 to 246 °C.

The compound `CCOC(=O)c1cn(CC(F)(F)F)c2c(C)cc(F)cc2c1=O` showed a melting point of 154 to 158 °C.

In the case of `CN1CCC(C2c3cccc4c3N(CC4)c3ccccc3N2C)CC1` (centres undefined), the melting point fell in the range of 138 to 139 °C.

Regarding `NC(=O)N1CC(Oc2cccc(F)c2)C1`, the melting point is 169 to 170 °C.

In turn, `CCCCC1(C#N)C2CC3CC(C2)CC1C3` (centres undefined) yielded a melting point of 48 to 50 °C.

In the case of `CCCCCCCC(=O)NCc1cccc(-c2ccc(CCC(=O)O)cc2)c1`, the melting point fell in the range of 124 to 125 °C.

`Cc1cccc(Cl)c1C(N)=NO` showed a melting point of 136 to 137 °C.

Compound `Cc1ccc(NC(=O)Nc2cccc(Oc3ccc4nc(COc5ccc(CC6SC(=O)NC6=O)cc5)n(C)c4c3)c2)cc1` (centres undefined) had a melting point of 173 to 175 °C.

As for `Cc1cnc2n(c1=O)CCC2`, the melting point was 82 °C.

As for `COC(=O)c1ccc(=O)n(CCNC(=O)c2cnc3ccccc3c2)c1`, the melting point is 174 to 175 °C.

For the compound `Cn1cnc2cc3[nH]c(-c4ccncc4)nc3cc21`, the melting point is greater than 280 °C.

For the compound `NS(=O)(=O)c1ccc(-c2cnn(Cc3ccc(F)cc3F)c(=O)c2-c2ccc(F)cc2)cc1`, the melting point lay within 236 to 238 °C.

With `Cc1nc(-n2cccc(O)c2=O)sc1C(=O)NCc1ccccc1`, the melting point lay in the range of 225 to 228 °C.

As for `COc1ccc(CNc2cc(Cl)ncc2C(=O)NCc2ncccn2)cc1Cl`, the melting point is 134 to 136 °C.

For the compound `Cc1nc(-n2cc(C(O)c3ccccc3)nn2)sc1C(=O)NCc1ccccc1` (centres undefined), the melting point lay within 143 to 146 °C.

`CS(=O)(=O)NCc1cccc(-c2csc(N=C(N)N)n2)n1` registered a melting point of 196 °C.

`Cc1cccc(C(=O)O)c1N(C)S(=O)(=O)c1ccc(OCCCCNC(=O)c2ccc3c(c2)OCO3)cc1` gave a melting point of 110 °C.

`COc1cc2c3c(n(C)c(=O)c2cc1OC)-c1cc2c(cc1C3=CCCCCCBr)OCO2` gave a melting point of 182 to 185 °C.

On to `Cc1cccc(NC(=O)NCC(=O)N(CC(=O)OC(C)(C)C)c2ccccc2)c1`, for which the melting point was determined as 180 °C.

For the compound `COC(=O)NC(=S)Nc1ccon1`, the melting point lay in the range of 165 to 167 °C.

In turn, `CC(=O)Oc1c(C)c(C)c2c(c1C)CC(CCI)O2` (racemic) had a melting point of 89 to 90 °C.

Turning to `COc1ccc(-c2c(CO)c(C)nc3cc(OC)c(OC)cc23)cc1OC`, the melting point was 200 to 201 °C.

In the case of `COCN(c1c(C)ccc2ccccc12)C1COC(=O)C1` (centres undefined), the melting point lay in the range of 42 to 46 °C.

`COCC(C)Oc1cc(Oc2ccc(S(C)(=O)=O)cc2)cc2cc(C3=NCC(CC(C)(C)O)S3)[nH]c12` (centres undefined) had a melting point of 112 to 113 °C.

As to `CCCCC1=NOC(Cc2ccccc2)C(=O)N1` (centres undefined), the melting point was in the range of 82 to 85 °C.

In the case of `CC(=O)c1c[nH]c(-c2ccncc2)c1C`, the melting point was 210 to 211 °C.

`Cn1cnc(S(=O)(=O)Nc2ccc(C(c3c(O)c4c(oc3=O)CCCCCC4)C3CC3)cc2)c1` (centres undefined) came in with a melting point of 238 to 242 °C.

For the compound `CCOCC1OC(n2cnc3c(N)nc(Cl)nc32)C(O)C1O` (centres undefined), the melting point was 117 to 119 °C.

For the compound `CCOC(=O)c1cccc2c1Cc1c-2[nH]c2ccc(Br)cc12`, the melting point fell in the range of 198 to 200 °C.

For `COCCOC(=O)C1=C(C)NC(C)=C(C(=O)OCC(F)(F)F)C1c1cccc([N+](=O)[O-])c1` (centres undefined), the melting point came out at 169 °C.

In the case of `CC(C)N(Cc1ccc(Cl)cc1)C(=O)Nc1ccccc1`, the melting point is 109 to 111 °C.

Regarding `COC(=O)c1ccccc1Oc1ccc([N+](=O)[O-])cc1`, the melting point was 74 °C.

Compound `COc1ccc(S(=O)(=O)Nc2nc(-c3cccc([N+](=O)[O-])c3)cs2)cc1` gave a melting point of 157 to 159 °C.

In turn, `Cc1c(F)cc(C(=O)O)cc1-c1ccc(C(=O)NCC(C)(C)C)cc1C(=O)Nc1nccs1` showed a melting point of 196 to 200 °C.

`CCc1nc2c(cnn2CC)c(NC2CCOCC2)c1CNC(=O)c1cccc(C(=O)NCc2ccc(F)c(-c3cccc(CN(C)CCN(C)C)c3)c2)c1` registered a melting point of 126 to 129 °C.

For the compound `OCc1c(C(F)(F)F)nn2ccc3c(c12)CCO3`, the melting point lay in the range of 151 to 153 °C.

For the compound `COc1ccccc1-c1ccc(C[C@@H](NC(=O)c2c(Cl)cccc2Cl)C(=O)O)cc1`, the melting point was 195 °C.

The compound `CCOC(=O)C1Cc2c(n(C)c3ccc(OCc4ccccc4)cc23)C1` (centres undefined) returned a melting point of 90 to 95 °C.

Turning to `O=C(Nc1ccc(-n2nc(C3CC3)cc2C2CC2)cc1)Nc1ccc2ncccc2c1`, the melting point is 102 to 104 °C.

In turn, `Cc1cc(Nc2ccnc(Nc3ccc(S(=O)(=O)N(C)C4CCN(Cc5csnn5)CC4)cc3)n2)ccc1F` showed a melting point of 168 °C.

In turn, `O=C(O)c1ccc(Br)c(S)c1` showed a melting point of 315 to 317 °C.

In the case of `OCc1cc(CCCCCCCOc2ccc(C3=NCCO3)cc2)on1`, the melting point fell in the range of 122 to 124 °C.

In turn, `COC(=O)c1[nH]c2ccc(C)cc2c1Sc1ccc(Cl)cc1` came in with a melting point of 230 to 233 °C.

`CCn1c(=O)c(CC(=O)OC)cc2ccc(O)cc21` came in with a melting point of 176 to 178 °C.

The compound `COc1ccc2c(-c3ccccc3F)noc2c1I` displayed a melting point of 135 to 138 °C.

Compound `COc1cc2c(cc1Nc1ncc(Cl)c(Nc3ccccc3S(=O)(=O)N3CCCC3)n1)CCN(CCO)CC2` showed a melting point of 110 °C.

`c1ccc(CN2CCN(c3ccnc4ccccc34)CC2)cc1`: the melting point lay within 105 to 106 °C.

On to `CCn1ncc2c(NCC3CCCCC3)c3cc(O)ccc3nc21`, for which the melting point was in the range of 223 to 224 °C.

Compound `CCOC(=O)CC(=O)CCCn1cncn1` gave a melting point of 114 to 116 °C.

Consider `COC1(N)C=CC(C(=O)c2cnc(Nc3ccccc3)s2)=CC1` (centres undefined), for which the melting point was determined as 222 °C.

The compound `COc1ccc(-c2nc(Sc3ncccn3)[nH]c2-c2ccc(OC)cc2)cc1` displayed a melting point of 86 °C.

Regarding `COCCN(C)c1nnc(-c2ccc(-c3ccccc3)nc2)n1-c1ccccc1C#N`, the melting point was in the range of 148 to 149 °C.

The compound `Cc1cnc(CSc2nc3cc(OC(F)(F)C(F)F)ccc3[nH]2)c(Cl)c1N1CCCCC1` yielded a melting point of 170 to 171 °C.

Compound `CN=C(NC#N)C1=CC2(CCCCC2)Oc2ccc([N+](=O)[O-])cc21` gave a melting point of 244 to 245 °C.

In turn, `COC(=O)[C@@H]1CCCC[C@@H]1C(=O)N(C)CC(=O)NO` (relative stereo) showed a melting point of 101 to 102 °C.

As for `CN(C)S(=O)(=O)n1cnc(S(=O)(=O)NCc2ccc(Cl)cc2)c1`, the melting point lay in the range of 171 to 173 °C.

As for `CN1Cc2c(C#Cc3ccc(Cl)cc3)ncn2-c2ccc(F)cc2C1=O`, the melting point is 221 to 222 °C.

With `CCCc1ccc(-n2nc(Cl)cc2-c2ccc(S(C)(=O)=O)cc2)cc1[N+](=O)[O-]`, the melting point was 42 to 46 °C.

As for `c1cnnc(N2CCN(CCCOc3ccc(C4=NCCO4)cc3)CC2)c1`, the melting point came out at 145 °C.

On to `CS(=O)(=O)Nc1cc(NC(=O)CN2C(=O)c3ccccc3C2=O)ccc1Oc1ccccc1`, for which the melting point is 208 to 209 °C.

For the compound `CCCc1oc2ccc([N+](=O)[O-])cc2c1C(=O)c1ccc(O)cc1`, the melting point was 119 °C.

`CC(C)(O)c1cc(C(C)(C)O)cc(C(C)(C)O)c1` returned a melting point of 148 to 150 °C.

`CCOC(=O)c1cnn2c1NCC=C2c1cccc(C(F)(F)F)c1` showed a melting point of 108 to 110 °C.
